Laboratory results published in patent publication US6291527A (priority 1998, dated 2001).
Structures can show the parent of a compound that is named as a salt.

What was measured:
[1] = animal studies of the three salts vs Ketoprofen acid and Ketoprofen sodium salt: distribution and kinetics; assay type: in vivo, experimental animals; conditions: for active substance concentration in the inflamed site: injection, vs Ketoprofen sodium salt; for kinetic parameters after oral administration: vs Ketoprofen acid and Ketoprofen sodium salt
From the text: The three above mentioned Ketoprofen salts were compared with Ketoprofen acid and Ketoprofen sodium salt in animal studies.

[2] = test system: carrageen edema; test: carrageen edema test in the rat (hind paw volume, plethysmometer); conditions: rat, oral; for evolution of paw volume (delta in ml) at 1st hour / evolution of paw volume (delta in ml) at 2nd hour / evolution of paw volume (delta in ml) at 3rd hour / evolution of paw volume (delta in ml) at 4th hour / evolution of paw volume (delta in ml) at 5th hour / evolution of paw volume (delta in ml) at 6th hour: mean ± MSE; for % inhibition vs controls (paw edema AUC): p < 0.001; for AUC (mean ± MSE) of increase in paw volume: paw volume (delta in ml) vs time (0 to 6 hours), controls 4.23 ± 0.26; for oral ED50 (carrageen edema, extrapolated from AUC): 95% conf. lim. KGS 0.733-1.474, KLS 1.198-1.567
[3] = test system: inflammatory exudate (IE); test: foreign body (sponge) method in the rat: inflammatory exudate volume; assay type: in vivo; conditions: for IE (inflammatory exudate) volume / % inhibition versus controls of IE: 8 hours; for IE (inflammatory exudate) volume: mean ± MSE, controls 5.15 ± 0.28
Method: (§1) These tests involved the use of 100 male CD strain rats (Charles River, Calco, LC, Italy) weighing 180±8 g. The animals were fasted for 12 hours (water ad libitum) before being used for the experiment.
(§2) The inflammatory reaction with the formation of exudate was induced by using sterilized polyester sponges (4×1.5×0.5 cm) soaked in carrageen dissolved at a 2% concentration in sterile physiological solution. The rats were anesthetized lightly with ether and two sponges per rat were implanted subcutaneously in a previously shaven dorsal area.
(§3) The sponges were removed 8 hours later after having sacrificed the animals by ether euthanasia, and immediately placed in large polyethylene 50 ml test tubes containing 10 ml of heparinized physiological solution. The test tubes were then subjected to centrifugation (1000 rotations; 15 minutes), followed by removal of the sponges and accurate measurement of the volume of the remaining fluid. Always using the Higgs et al. method, the acid lipids present in the fluid were extracted in chloroform with prior dilution in ethanol and acidification to pH 3. After complete evaporation of the chloroform, the remaining dry residue was dissolved in physiological solution and used for the immunoenzymatic assay of prostaglandin E2 (PGE2).
(§4) All the other reagents used for the tests were purchased from Merck-Bracco (Milan, Italy).

[4] = test system: prostaglandin E2 (PGE2); test: foreign body (sponge) method in the rat: PGE2 in the inflammatory exudate (immunoenzymatic assay); assay type: in vivo; conditions: rat, oral, listed as KLS; for PGE2 concentration in the inflammatory exudate / % inhibition versus controls of PGE2: 8 hours; for PGE2 concentration in the inflammatory exudate: mean, controls 98.7 ± 4.7
Method: as §1, §2, §3, §4

[5] = rat, oral, 0.5 mg/kg, listed as KLS
[6] = rat, oral, 1 mg/kg, listed as KLS
[7] = rat, oral, 2 mg/kg, listed as KLS
[8] = rat, oral, 4 mg/kg, listed as KLS

## CC(C(=O)O)c1cccc(C(=O)c2ccccc2)c1 (stereo not shown) [Ketoprofen Hydroxyproline salt]
[1]
  active substance concentration in the inflamed site: intermediate concentrations between the sodium salt and the Glucosamine salt
  kinetic parameters after oral administration: significantly different

## CC(C(=O)O)c1cccc(C(=O)c2ccccc2)c1 (stereo not shown) [Ketoprofen Lysine salt]
[2]; 0.5 mg/kg, controls 0.40 ± 0.02, listed as KLS
  evolution of paw volume (delta in ml) at 1st hour: 0.32 ± 0.02 mL
[2]; 0.5 mg/kg, controls 0.71 ± 0.02, listed as KLS
  evolution of paw volume (delta in ml) at 2nd hour: 0.53 ± 0.03 mL
[2]; 0.5 mg/kg, controls 0.87 ± 0.03, listed as KLS
  evolution of paw volume (delta in ml) at 3rd hour: 0.66 ± 0.04 mL
[2]; 0.5 mg/kg, controls 0.93 ± 0.03, listed as KLS
  evolution of paw volume (delta in ml) at 4th hour: 0.70 ± 0.03 mL
[2]; 0.5 mg/kg, controls 0.90 ± 0.04, listed as KLS
  evolution of paw volume (delta in ml) at 5th hour: 0.68 ± 0.02 mL
[2]; 0.5 mg/kg, controls 0.84 ± 0.04, listed as KLS
  evolution of paw volume (delta in ml) at 6th hour: 0.64 ± 0.03 mL
[2]; 0.5 mg/kg, listed as KLS
  % inhibition vs controls (paw edema AUC): 24.1%
[2]; 0.5 mg/kg, listed as KLS, 0.5 mg/kg
  AUC (mean ± MSE) of increase in paw volume: 3.21 ± 0.17
[2]; 1 mg/kg, listed as KLS
  evolution of paw volume (delta in ml) at 1st hour: 0.24 ± 0.02 mL
  evolution of paw volume (delta in ml) at 2nd hour: 0.43 ± 0.03 mL
  evolution of paw volume (delta in ml) at 3rd hour: 0.54 ± 0.03 mL
  evolution of paw volume (delta in ml) at 4th hour: 0.59 ± 0.03 mL
  evolution of paw volume (delta in ml) at 5th hour: 0.57 ± 0.03 mL
  evolution of paw volume (delta in ml) at 6th hour: 0.49 ± 0.03 mL
  % inhibition vs controls (paw edema AUC): 38.0%
[2]; 1 mg/kg, listed as KLS, 1 mg/kg
  AUC (mean ± MSE) of increase in paw volume: 2.62 ± 0.12
[2]; 2 mg/kg, listed as KLS
  evolution of paw volume (delta in ml) at 1st hour: 0.13 ± 0.02 mL
  evolution of paw volume (delta in ml) at 2nd hour: 0.23 ± 0.02 mL
  evolution of paw volume (delta in ml) at 3rd hour: 0.28 ± 0.02 mL
  evolution of paw volume (delta in ml) at 4th hour: 0.29 ± 0.02 mL
  evolution of paw volume (delta in ml) at 5th hour: 0.28 ± 0.02 mL
  evolution of paw volume (delta in ml) at 6th hour: 0.23 ± 0.03 mL
  % inhibition vs controls (paw edema AUC): 68.6%
[2]; 2 mg/kg, listed as KLS, 2 mg/kg
  AUC (mean ± MSE) of increase in paw volume: 1.33 ± 0.07
[2]
  oral ED50 (carrageen edema, extrapolated from AUC): 1.383 mg/kg
[2]; listed as KLS
  oral ED50 (carrageen edema, extrapolated from AUC): 1.383 mg/kg
[3]; rat, 0.5, 1, 2 and 4 mg/kg per os
  control of the inflammatory response to sponge implantation: able to control the inflammatory response
[3]; [5]
  IE (inflammatory exudate) volume: 4.33 ± 0.26 mL
  % inhibition versus controls of IE: 15.9%
[3]; [6]
  IE (inflammatory exudate) volume: 3.82 ± 0.15 mL
  % inhibition versus controls of IE: 25.8%
[3]; [7]
  IE (inflammatory exudate) volume: 2.97 ± 0.19 mL
  % inhibition versus controls of IE: 42.3%
[3]; [8]
  IE (inflammatory exudate) volume: 1.68 ± 0.14 mL
  % inhibition versus controls of IE: 67.4%
[3]; rat, oral, 95% confidence limits KGS 1.802-2.381, KLS 2.334-3.094, 480 min, listed as KLS
  IE oral ED50: 2.714 mg/kg
[4]; 0.5 mg/kg
  PGE2 concentration in the inflammatory exudate: 78.1 ng/mL
  % inhibition versus controls of PGE2: 20.9%
[4]; 1 mg/kg
  PGE2 concentration in the inflammatory exudate: 67.9 ng/mL
  % inhibition versus controls of PGE2: 31.2%
[4]; 2 mg/kg
  PGE2 concentration in the inflammatory exudate: 55.6 ng/mL
  % inhibition versus controls of PGE2: 43.7%
[4]; 4 mg/kg
  PGE2 concentration in the inflammatory exudate: 32.8 ng/mL
  % inhibition versus controls of PGE2: 66.8%
[4]; 95% confidence limits KGS 1.848-2.131, KLS 2.215-3.005, 480 min
  PGE2 oral ED50: 2.610 mg/kg

## CC(C(=O)O)c1cccc(C(=O)c2ccccc2)c1 (stereo not shown) [Ketoprofen Proline salt]
[1]
  active substance concentration in the inflamed site: intermediate concentrations between the sodium salt and the Glucosamine salt
  kinetic parameters after oral administration: significantly different
